US20220227765A1, “PYRIDO-INDOLE ANALOGUES AS GPX4 INHIBITORS” (Ferro Therapeutics, Inc., priority 2019, published 2022)

Tests used:
Format in all cases: cell-based, human
786-O = assay: Cell proliferation (Alamar Blue) assay, 786-O; settings: Homo sapiens, 786-0, 24 h, Table C-3, 786-O cells
Protocol: (§1) Cell viability assay was performed to assess the potency of the compounds in human cancer cell lines 786-0 (renal cell carcinoma) and SJSA-1 (osteosarcoma). Additional cell lines, such as pancreatic cancer cell lines (Panc 02.13, BxPC-3, Panc 12, Panc 02.03, Panc 6.03, PSN-1, HPAC, and Capan-1), prostate cancer cell lines (PC-3, DU145, 22Rv1, NCI-H660, BPH1, LNCaP, BM-1604, and MDA PCa 2b), etc., can be tested in a similar method.
(§2) Cells (SJSA-1, 786-0 and A431) were seeded (5000 cells/100 μL/well) in 96-well tissue culture plate and incubated at 37° C./5% CO2 for 16-24 hours. The cells were then treated with compounds (25 μL of 5×). The compound concentrations were 10-0.0005 μM prepared in 3-fold serial dilutions with final DMSO concentration of 1%. The plates were then incubated for 24 h at 37° C./5% CO2 in a moist environment. Then Alamar Blue™ reagent (final concentration 1×-12.5 μL) was added to each well and incubated for 1.5 hours at 37° C./5% CO2. The plates were read on fluorescence reader at 540 nm excitation and 590 nm emission wavelengths. The IC50 values were subsequently determined using a sigmoidal dose-response curve (variable slope) in GraphPad Prism® 5 software. Table A-3, Table B-3 and Table C-3 show cell proliferation data for certain compounds as described herein.

SJSA-1 = assay: Cell proliferation (Alamar Blue) assay, SJSA-1; settings: Homo sapiens, SJSA-1, 24 h, Table C-3, SJSA-1 cells, 24 h, read-out: IC50 (μM) SJSA-1
Protocol: as §1, §2

A431 = assay: Cell proliferation (Alamar Blue) assay, A431; settings: Homo sapiens, A-431, 24 h, Table C-3, A431 cells
Protocol: as §1, §2

IC50 (786-O) [µM] | IC50 (SJSA-1) [µM] | IC50 (A431) [µM] | Compound
0.14 | 0.22 | > 10 | C#CC(=O)N1[C@@H](CCCC)Cc2c([nH]c3c(F)cc(F)cc23)[C@@H]1CCC [Compound C-3]
0.048 | 0.045 | 4.4 | C#CC(=O)N1[C@@H](CCCC)Cc2c([nH]c3c(F)cc(F)cc23)[C@@H]1CCCC [Compound C-4]
0.22 | 0.22 | > 10 | C#CC(=O)N1[C@@H](CCCC)Cc2c([nH]c3c(F)cc(F)cc23)[C@@H]1CC(C)C [Compound C-5]
> 10 | > 10 | > 10 | C#CC(=O)N1[C@@H](CCCC)Cc2c([nH]c3c(F)cc(F)cc23)[C@@H]1CCCCCCCCCCCCCCC [Compound C-6]
0.043 | 0.093 | 6.8 | C#CC(=O)N1[C@@H](CCCC)Cc2c([nH]c3c(F)cc(F)cc23)[C@@H]1COCCOC [Compound C-7]
0.098 | 0.22 | > 10 | C#CC(=O)N1[C@@H](CCCC)Cc2c([nH]c3ccccc23)[C@]1(C)c1ccc(F)cc1 [Compound C-11]
0.017 | 0.017 | > 10 | CCCC[C@H]1Cc2c([nH]c3ccccc23)[C@](C)(c2ccc(F)cc2)N1C(=O)CCl [Compound C-14]
0.07 | 0.08 | 9.4 | C#CC(=O)N1[C@@H](CCCC)Cc2c([nH]c3c(F)cc(F)cc23)[C@@H]1CCCCCCCC [Compound C-21]
0.017 | 0.054 | > 10 | C#CC(=O)N1[C@@H](C)Cc2c([nH]c3ccccc23)[C@]1(C)c1ccc(F)cc1 [Compound C-37]
